Target: Escherichia coli β-glucuronidase (EcGUS) (Escherichia coli, UniProt P05804)
Assay: PNPG hydrolysis assay, Lineweaver-Burk kinetics
Assay type: biochemical

Escherichia coli β-glucuronidase (EcGUS), sequence (P05804 whole entry): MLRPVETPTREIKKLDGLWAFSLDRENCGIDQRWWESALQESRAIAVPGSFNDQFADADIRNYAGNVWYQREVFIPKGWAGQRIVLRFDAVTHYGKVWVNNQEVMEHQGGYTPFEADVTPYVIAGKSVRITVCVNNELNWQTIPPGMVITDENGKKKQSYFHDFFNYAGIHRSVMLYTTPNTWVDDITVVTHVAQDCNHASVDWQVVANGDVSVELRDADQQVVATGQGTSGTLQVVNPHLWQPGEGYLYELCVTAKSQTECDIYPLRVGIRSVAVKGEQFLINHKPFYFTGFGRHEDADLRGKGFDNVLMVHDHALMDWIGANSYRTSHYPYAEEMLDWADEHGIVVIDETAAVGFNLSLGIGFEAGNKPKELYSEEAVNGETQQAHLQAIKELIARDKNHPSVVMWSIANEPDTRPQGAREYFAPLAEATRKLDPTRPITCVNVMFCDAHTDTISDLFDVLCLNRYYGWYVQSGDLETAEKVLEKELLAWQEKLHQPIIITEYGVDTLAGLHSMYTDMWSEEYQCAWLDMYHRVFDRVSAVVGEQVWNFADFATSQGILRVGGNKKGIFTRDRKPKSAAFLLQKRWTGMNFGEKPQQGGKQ

Clc1ccc2c(c1)C(N1CCNCC1)=Nc1ccccc1O2 [AMX, amoxapine]
PNPG hydrolysis assay, Lineweaver-Burk kinetics: both AMX and E-9 acted as uncompetitive inhibitors against EcGUS
